Experimental data published in the OPERA property sets (Mansouri et al. 2018).
Peptide text beside a SMILES is read from it. * marks the point of attachment. Boc = CC(C)(C)OC(=O)*

Compared with O=C(OCn1ncc2c(=O)[nH]cnc21)c1ccc(CN2CCOCC2)cc1, O=C(OCC1CCC(n2cnc3c(=O)[nH]cnc32)O1)c1ccccc1 (stereo not given) is lower in logP: 1.12 for the first, 0.66 for the second.

First: CC(C)(C)c1ccccc1OCC(=O)O
Second: O=C(O)Cc1ccccc1F
The logP of the first is higher: 3.33 for the first, 1.5 for the second.

Compared with CC(=O)Nc1ccc(O)c(C(C)C)c1, Cc1ccc(O)c(C(=O)O)c1 is higher in logP: 1.71 for the first, 2.78 for the second.

First: Fc1ccccc1CCl
Second: O=C(O)Cc1ccccc1O
The logP of the first is higher: 2.67 for the first, 0.85 for the second.

Going from c1ccc2nnccc2c1 to CC(=O)c1cnc2ccccc2c1, the logP rises from 0.93 to 1.76.

First: Cc1cnnc2cc(Cl)ccc12
Second: Cc1ccc(O)c2ncccc12
The logP of the first is lower: 1.98 for the first, 2.37 for the second.

Compared with c1cnc2nccnc2c1, Brc1ccc2cccnc2c1 is higher in logP: -0.04 for the first, 2.92 for the second.

First: COc1ccc(C(N)=O)cc1
Second: COc1ccc(OCC(=O)NNC(C)C)cc1
The logP of the first is lower: 0.86 for the first, 1.21 for the second.

Compared with CCN(C)C, CCN(N=O)C(C)C is higher in logP: 0.7 for the first, 0.9 for the second.

First: CN(C)C(=O)OCc1ccc(OC(=O)N(C)C)cc1
Second: COc1ccccc1S(I)=C(N(C)C)N(C)C (stereo not given)
The logP of the first is higher: 1.59 for the first, -0.52 for the second.

Compared with OCc1ccc2cccnc2c1, c1ccc(-c2cc3ccccc3[nH]2)nc1 is higher in logP: 1.29 for the first, 3.33 for the second.

Compared with CCNc1nc(NC(C)C)nc(SC)n1, CCCNc1nc(NC)nc(SC(F)F)n1 is higher in logP: 2.98 for the first, 3.28 for the second.

Compared with CCOc1cccc(C(=O)NP(=O)(N2CC2)N2CC2)c1, NNC(=O)c1cccc([N+](=O)[O-])c1 is lower in logP: 1.24 for the first, 0.23 for the second.

First: NC(=O)Nc1ccc(C(O)C(CO)NC(=O)C(Cl)Cl)cc1 (stereo not given)
Second: O=C(Nc1ccc(Cl)cc1)c1cccnc1
The logP of the first is lower: -0.6 for the first, 2.52 for the second.

Going from C1CCCCCC1 to O=C(NN1CCCCCC1)NS(=O)(=O)c1ccc(Cl)cc1, the logP falls from 4 to 1.64.

First: CCOC(=O)C(=Cc1cccc(F)c1)C(C)=O
Second: CCOC(=O)C(=Cc1ccc(Cl)c(Cl)c1)C(C)=O
The logP of the first is lower: 2.46 for the first, 3.92 for the second.

First: OCC=CCO
Second: OCCNc1ccccc1
The logP of the first is lower: -0.81 for the first, 0.82 for the second.

First: NC(C(=O)O)c1cccs1 (stereo not given)
Second: CN(C)C(=O)c1cccs1
The logP of the first is lower: -2.05 for the first, 0.75 for the second.

First: CC(=O)c1cccc([N+](=O)[O-])c1
Second: O=[N+]([O-])c1ccccc1Br
The logP of the first is lower: 1.42 for the first, 2.52 for the second.

First: COc1cccc(CC(=O)O)c1
Second: COc1cc(CC(=O)O)ccc1OC(C)C
The logP of the first is lower: 1.5 for the first, 1.75 for the second.

Compared with CN(C)CCC(c1ccc(Cl)cc1)c1ccccn1 (stereo not given), O=C(Nc1ccccc1)NS(=O)(=O)c1ccc(Cl)cc1 is higher in logP: 3.38 for the first, 3.61 for the second.

Going from Oc1cccc(F)c1 to CCc1cccc(O)c1, the logP rises from 1.93 to 2.4.

Compared with CNC(=O)Oc1ccccc1Cl, CNC(=O)Oc1cccc(Cl)c1 is higher in logP: 1.64 for the first, 2.03 for the second.

First: CN1CC[C@]23CCCC[C@H]2[C@H]1Cc1ccc(O)cc13
Second: c1cncc([C@@H]2CCCCN2)c1
The logP of the first is higher: 3.11 for the first, 0.97 for the second.

First: CC(C)(Oc1ccc(Cl)cc1)C(=O)O
Second: COP(=O)(OC)Oc1ccc([N+](=O)[O-])cc1
The logP of the first is higher: 2.57 for the first, 1.33 for the second.

First: CC(=O)OCC1=C(C(=O)O)N2C(=O)C(NC(=O)COc3ccccc3)C2SC1 (stereo not given)
Second: O=C(O)COc1cccc(NC(=O)c2ccccc2)c1
The logP of the first is lower: 0.26 for the first, 1.99 for the second.

Going from CN(C)Cc1ccccc1 to N#CCCCc1ccccc1, the logP rises from 1.98 to 2.21.

Compared with CCC(=O)c1ccccc1, CCC(=O)c1ccccc1O is higher in logP: 2.19 for the first, 2.54 for the second.

Compared with CCCC(=O)OCn1cnc(CSCCNC(=NC#N)NC)c1C, CCN(CC)CCNC(=O)c1cc(C#N)c(N)cc1OC is higher in logP: 1.6 for the first, 1.94 for the second.

Compared with C=CCC1(CC(=C)Br)C(=O)NC(=O)N(C)C1=O (stereo not given), O=C1NC(=O)[C@@]2(CCOc3ccc(F)cc32)N1 is lower in logP: 1.78 for the first, 0.78 for the second.

Compared with CCCOC(=O)c1ccccc1C(=O)OCCC, COC(=O)c1ccccc1C(=O)O is lower in logP: 3.27 for the first, 1.13 for the second.

First: CC(=O)C(C)(C)C
Second: COC(C)=O
The logP of the first is higher: 1.2 for the first, 0.18 for the second.

First: O=C(c1ccccc1)c1ccccc1O
Second: O=S(=O)(c1ccccc1)c1ccccc1
The logP of the first is higher: 3.52 for the first, 2.4 for the second.

Compared with CON(C)C(=O)Nc1ccc(Br)c(Cl)c1, COC(=O)c1ccccn1 is lower in logP: 3.09 for the first, 0.36 for the second.

First: NS(=O)(=O)c1cccc(S(N)(=O)=O)c1
Second: Cc1ccc(S(=O)(=O)F)cc1
The logP of the first is lower: -0.55 for the first, 2.74 for the second.

COc1ccccc1 and CCNc1ccccc1 are within 0.2 log units of each other in logP: 2.11 for the first, 2.16 for the second.

CCCCC(=O)OC and COC(=O)CC(C)C are within 0.2 log units of each other in logP: 1.96 for the first, 1.82 for the second.

Compared with c1ccc(C23CC4CC(CC(C4)C2)C3)cc1, OC12CC3CC(CC(C3)C1)C2 is lower in logP: 5.55 for the first, 2.14 for the second.

Going from Clc1ccc(Cl)c(-c2c(Cl)ccc(Cl)c2Cl)c1 to O=C1OCc2c(Cl)c(Cl)c(Cl)c(Cl)c21, the logP falls from 6.55 to 3.2.

First: O=S(=O)(Nc1ccc(-c2ccccc2)cc1)C(F)(F)F
Second: N#Cc1ccc(CC(=O)Nc2ccccc2)cc1
The logP of the first is higher: 4.97 for the first, 2.82 for the second.

First: CCCCOCCOCCO
Second: CCCCCOC1OC(CO)C(O)C(O)C1O (stereo not given)
The logP of the first is higher: 0.56 for the first, -0.42 for the second.

Going from OCCCc1cccnc1 to O=C(Nc1ccccc1)c1cccnc1, the logP rises from 0.6 to 1.73.

First: CCOP(=S)(OCC)SCCSCC
Second: C=C(C)C(=O)OCC(C)C
The logP of the first is higher: 4.02 for the first, 2.66 for the second.

Going from c1ccc(Cn2ccnn2)cc1 to c1ccc(-n2cccc2)cc1, the logP rises from 1.27 to 3.08.

Compared with NC(=O)c1ccco1, CCC(C(N)=O)(C(N)=O)c1ccccc1 is higher in logP: -0.11 for the first, 0.13 for the second.

O=c1[nH]cc(Br)c(=O)[nH]1 and O=c1[nH]c(=O)n([C@H]2C[C@H](O)[C@@H](CO)O2)cc1Br are within 0.2 log units of each other in logP: -0.21 for the first, -0.29 for the second.

Going from Cc1cccc(C(=O)O)c1O to O=C(O)c1c[nH]c2ccccc12, the logP falls from 2.86 to 1.99.

Going from O=Nc1ccc(O)cc1 to CSc1ccc(O)cc1, the logP rises from 1.29 to 1.78.

Compared with NC[C@H](O)c1ccc(O)c(O)c1, COc1ccc(OC(=O)c2ccc(N)cc2O)cc1 is higher in logP: -1.24 for the first, 3.07 for the second.

Going from CC(C)C(NC(=O)C(Cc1ccccc1)NC(=O)OC(C)(C)C)C(=O)O (stereo not drawn) (Boc-Phe-Val-OH; configuration not given here) to CC(C)c1cc(Oc2ccccc2)cc(C(C)C)c1NC(=S)NC(C)(C)C, the logP rises from 2.88 to 6.

Going from Cc1cc2ccccc2n1C to c1ccc2[nH]ncc2c1, the logP falls from 2.82 to 1.77.

Going from NS(=O)(=O)c1ccc(SCCO)s1 to O=C1C=C(NCCO)C(=O)c2ccccc21, the logP rises from 0.38 to 1.23.

First: O=C(OCc1ccccc1)n1c(=O)[nH]cc(F)c1=O
Second: O=C1Nc2ccccc2C1=O
The logP of the first is higher: 1.42 for the first, 0.83 for the second.

Going from Nc1ncnc2ncn(C(c3ccccc3)c3ccccc3)c12 to O=C(Nc1ncnc2c1ncn2[C@@H]1O[C@H](CO)[C@@H](O)[C@H]1O)c1ccccc1, the logP falls from 3.19 to -0.1.

Going from CCOc1ccccc1-c1nc(N)nc(N)n1 to CC1=CC(=O)c2ccccc2C1=O, the logP rises from 1.03 to 2.2.

Going from O=C1C=CC(=O)C=C1 to CC1=CC(=O)C=C(C)C1=O, the logP rises from 0.2 to 1.22.

First: O=C1C=C(N2CC=CC2)C(=O)c2ccccc21
Second: CN(C)N=Nc1cccc2oc3ccccc3c12
The logP of the first is lower: 2.85 for the first, 4.55 for the second.

c1ccc(-c2ccc(NCCN3CCOCC3)nn2)cc1 and c1ccc2c(c1)OCCO2 are within 0.2 log units of each other in logP: 1.85 for the first, 2.01 for the second.

Compared with COc1ccc(-c2nc3ccncc3n2C)c(OC)c1, N#Cc1cccc(N)c1 is lower in logP: 2.68 for the first, 1.07 for the second.

Going from N#CC(C#N)=NNc1ccc(C(=O)CCl)cc1 to O=C(NCC(O)CO)c1c(I)c(N(CCO)C(=O)CO)c(I)c(N(CCO)C(=O)CO)c1I (stereo not given), the logP falls from 2.15 to -2.55.
